In patent publication US4250183A, “N-(Substituted amino)alkanoyl-aminoalkanoic acids and salts, their use and their compositions” (BYK Gulden Lomberg Chemische Fabrik GmbH, priority 1977, dated 1981):

What was measured:
in vivo = details: mouse, ip
Experimental: (§7) The animals (5 animals per dose) are given food and water ad lib. Different dosages of the substances are administered intraperitoneally. The duration of observation is 14 days.

[1] = Influence on the pancreatic secretion of the narcotized rat after intraduodenal application; format: in vivo, rat (male Sprague-Dawley); details: in vivo; Table I; LD50 mouse i.p. / ED50 pancreatic secretion rat i.d.; read-out: TQ (LD50/ED50), pancreatic secretion
From the text: (§1) Influence on the Pancreatic and Bile Secretion of the Narcotized Rat Carrying out the Test
(§2) Male Sprague-Dawley rats (250 to 300 g body weight) are narcotized with 1.2 g/kg urethane i.m. Then the abdominal cavity is opened medially, the Ductus choledochus ligatured shortly above its entry into the duodenum and also near the liver joint, and both sections are catheterized towards the liver.
(§3) As in the case of the rat all pancreatic ducts lead into the center section of the Ductus choledochus; it is thus possible in this way to derive separately the pancreatic secreta from the distal (ligatured) section and the bile from the proximal section of the Ductus choledochus.
(§4) The separated quantities of pancreatic juice and bile juice are measured at intervals of 30 minutes during the period from before 2 hours to 3 hours after the intraduodenal […] administration of the compounds to be tested (volume of liquid administered 5 ml/kg).
(§5) The body temperature of the animals is maintained at from 36° to 38° C. by means of electric blankets and radiation; the monitoring of the temperature is carried out rectally.
(§6) The liquid volumes of the 30-minute fractions after the administration of the product are related in each case to the quantity of bile or pancreatic juice secreted prior to the application of the substance (=100%, mean of the two last measurements). The maximum percentage increase of the pancreatic or bile secretion is plotted against the dose and, from this, the ED50 is determined by interpolation.

pancreatic secretion = test: as above; format: in vivo, rat (male Sprague-Dawley); details: Rattus norvegicus, 0.5 h, read-out: Pancreatic Secretion ED50 (dose which brings about an increase in the pancreatic secretion by a maximum of 50%)
From the text: as §1, §2, §3, §4, §5, §6

[2] = Influence on the bile secretion (choleresis) of the narcotized rat after intraduodenal application; format: in vivo, rat (male Sprague-Dawley); details: in vivo; Table II; LD50 mouse i.p. / ED50 bile secretion rat i.d.; read-out: TQ (LD50/ED50), bile secretion
From the text: as §1, §2, §3, §4, §5, §6

bile secretion = test: as above; format: in vivo, rat (male Sprague-Dawley); details: Rattus norvegicus, 0.5 h, read-out: Bile Secretion ED50 (dose which brings about an increase in the bile secretion by a maximum of 50%)
From the text: as §1, §2, §3, §4, §5, §6

female NMRI mice = test: Determination of the toxicity, lethal effect on the mouse after intraperitoneal application; details: Table II, i.p., 14 days observation;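 also: mice received several intraperitoneal dose levels, five animals per level, and were followed for 14 days to estimate the lethal dose for half the animals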
Experimental: as §7

Structure (SMILES)	LD50 at 336 h (in vivo) [mg/kg]	selectivity ratio [1]	ED50 (pancreatic secretion) [mg/kg]	selectivity ratio [2]	ED50 (bile secretion) [mg/kg]	Toxicity LD50 (female NMRI mice) [mg/kg]
Cc1cccc(C)c1N(CCCC(=O)N(C)CC(=O)O)C(=O)c1ccc(Cl)cc1 [Serial No. 2, N-[N-(p-chlorobenzoyl)-4-(2,6-dimethylanilino)butyryl]sarcosine]	700	70	10			
COc1ccc(N(CC(=O)N(C)CC(=O)O)C(=O)c2ccc(Cl)cc2)cc1 [Serial No. 3, N-[N-(p-chlorobenzoyl)-2-(p-anisidino)acetyl]sarcosine]	> 1000	> 67	15			
COc1ccc(N(CC(=O)NCC(=O)O)C(=O)c2ccc(Cl)cc2)cc1 [Serial No. 4, N-[N-(p-chlorobenzoyl)-2-(p-anisidino)acetyl]glycine]	> 1000	> 67	15			
COc1ccc(N(CC(=O)NCCC(=O)O)C(=O)c2ccc(Cl)cc2)cc1 [Serial No. 5, N-[N-(p-chlorobenzoyl)-2-(p-anisidino)acetyl]-3-aminopropionic acid]	1300	52	25			
Cc1cccc(C)c1N(CC(=O)NCC(=O)O)C(=O)c1ccc(Cl)cc1 [Serial No. 6, N-[N-(p-chlorobenzoyl)-2-(2,6-dimethylanilino)acetyl]glycine]	400	~80	~5			
Cc1cccc(C)c1N(CC(=O)NCCC(=O)O)C(=O)c1ccc(Cl)cc1 [Serial No. 7, N-[N-(p-chlorobenzoyl)-2-(2,6-dimethylanilino)acetyl]-3-aminopropionic acid]	450	≥ 450	≤ 1	45	10	
COc1ccc(N(CC(=O)N(CCCC(=O)O)c2ccc(OC)cc2)C(C)=O)cc1 [Serial No. 8, N-[N-acetyl-2-(p-anisidino)acetyl]-4-(p-anisidino)butyric acid]	1200	1200	1			
COc1ccc(N(CCCC(=O)O)C(=O)CN(C(=O)c2ccc(Cl)cc2)c2ccc(OC)cc2)cc1 [Serial No. 9, N-[N-(p-chlorobenzoyl)-2-(p-anisidino)acetyl]-4-(p-anisidino)butyric acid]	420	140	3			
COc1ccc(N(CCCC(=O)O)C(=O)CCN(C(=O)c2ccc(Cl)cc2)c2ccc(OC)cc2)cc1 [Serial No. 10, N-[N-(p-chlorobenzoyl)-3-(p-anisidino)propionyl]-4-(p-anisidino)butyric acid]	220	~220	~1			
Cc1cccc(C)c1N(CCCC(=O)O)C(=O)CCCN(C(=O)c1ccc(Cl)cc1)c1c(C)cccc1C [Serial No. 11, N-[N-(p-chlorobenzoyl)-4-(2,6-dimethylanilino)butyryl]-4-(2,6-dimethylanilino)butyric acid]	130	130	1	43	3	
COc1ccc(N(CCCC(=O)N(CCCC(=O)O)c2c(C)cccc2C)C(=O)c2ccc(Cl)cc2)cc1 [Serial No. 12, N-[N-(p-chlorobenzoyl)-4-(p-anisidino)butyryl]-4-(2,6-dimethylanilino)butyric acid]	800	400	2	57	14	
COc1ccc(N(CCCC(=O)O)C(=O)CCCN(C(=O)c2ccc(Cl)cc2)c2c(C)cccc2C)cc1 [Serial No. 13, N-[N-(p-chlorobenzoyl)-4-(2,6-dimethylanilino)butyryl]-4-(p-anisidino)butyric acid]	150	188	0.8			
Cc1cccc(C)c1N(CCCC(=O)NCCCC(=O)O)C(=O)c1ccc(Cl)cc1 [Serial No. 14, N-[N-(p-chlorobenzoyl)-4-(2,6-dimethylanilino)butyryl]-4-aminobutyric acid]	400	1000	0.4			
COc1cc(C(=O)N(CCCC(=O)NCCCC(=O)O)c2c(C)cccc2C)cc(OC)c1OC [Serial No. 15, N-[N-(3,4,5-trimethoxybenzoyl)-4-(2,6-dimethylanilino)butyryl]-4-aminobutyric acid]	800	~800	~1			
COc1ccc(N(CCCC(=O)O)C(=O)C(C)N(C(C)=O)c2ccc(OC)cc2)cc1 (centres unmarked) [Serial No. 16, N-[N-acetyl-2-(p-anisidino)propionyl]-4-(p-anisidino)butyric acid]	600			60	10	
COc1ccc(N(CCCC(=O)O)C(=O)C(C)N(C(=O)c2ccco2)c2ccc(OC)cc2)cc1 (centres unmarked) [Serial No. 17, N-[N-(2-furoyl)-2-(p-anisidino)propionyl]-4-(p-anisidino)butyric acid]	750	150	5	68	11	
COc1ccc(N(CCCC(=O)O)C(=O)C(C)N(C(=O)c2ccc(Cl)cc2)c2ccc(OC)cc2)cc1 (centres unmarked) [Serial No. 18, N-[N-(p-chlorobenzoyl)-2-(p-anisidino)propionyl]-4-(p-anisidino)butyric acid]	≤ 250	≤ 50	5	≤ 36	7	≤ 250
COc1ccc(N(CCCC(=O)O)C(=O)CCN(C(C)=O)c2c(C)cccc2C)cc1 [Serial No. 20, N-[N-acetyl-3-(2,6-dimethylanilino)propionyl]-4-(p-anisidino)butyric acid]	600	86	7	86	7	
CCc1cccc(CC)c1N(CCCC(=O)O)C(=O)CCN(C(C)=O)c1c(C)cccc1C [Serial No. 21, N-[N-acetyl-3-(2,6-dimethylanilino)propionyl]-4-(2,6-diethylanilino)butyric acid]	280			~280	~1	
CCc1cccc(C)c1N(CCCC(=O)O)C(=O)CCN(C(C)=O)c1c(C)cccc1C [Serial No. 22, N-[N-acetyl-3-(2,6-dimethylanilino)propionyl]-4-(2-ethyl-6-methylanilino)butyric acid]	430	143	3	331	1.3	
COc1ccc(N(CCCC(=O)O)C(=O)[C@H](CCSC)NC(=O)c2ccc(Cl)cc2)cc1 [Serial No. 23, N-[N-(p-chlorobenzoyl)methionyl]-4-(p-anisidino)butyric acid]	700			280	2.5	
COc1ccc(C(=O)N[C@@H](Cc2ccccc2)C(=O)N(CCCC(=O)O)c2ccc(OC)cc2)cc1 [Serial No. 24, N-[N-(p-methoxybenzoyl)phenylalanyl]-4-(p-anisidino)butyric acid]	300	50	6	50	6	
COc1ccc(N(CCCC(=O)O)C(=O)CCN(C(=O)c2ccc(Cl)cc2)c2c(C)cccc2C)cc1 [Serial No. 25, N-[N-(p-chlorobenzoyl)-3-(2,6-dimethylanilino)propionyl]-4-(p-anisidino)butyric acid]	60			~60	~1	
